“Also recorded” adds a separate entry of the source.
Assays:
[1] = tested on: T47D cells; assay: Translation and degradation assays (3H-phenylalanine); format: cell-based, human; settings: control cells, 20-hour treatment
Protocol: FIGS. 4A-4F: Transient induction of PSMD2 shRNA is sufficient to promote resistance to proteasome inhibition. (FIG. 4A) Schematic representation of the experimental design. (FIG. 4B) T471) cells harboring a doxycycline-inducible PSMD2 shRNA were grown in the presence of in/nil doxycycline for 48 hours. Cells were then collected, washed and plated in the absence of doxycycline for 24 hours prior to exposure to increasing concentrations of bortezomib. Relative cell numbers were measured 3 days later. […] The proteasome complex levels and activity of the 20S proteasome were assessed by native gel electrophoresis. Loading controls were analyzed by immunoblot for PSMD2 and tubulin following SDS-PAGE. […] (FIG. 4E) The rate of degradation was analyzed in cells with reduced levels of PSMD2 (green bars) versus control (red bars) in the presence or absence of 10 nM bortezomib (treatment for 20 hours) by monitoring the release of H3-Phe in pre-labeled cells. (FIG. 4F) Rate of total protein synthesis was determined in cells with reduced levels of PSMD2 (green bars) versus control (red bars) in the presence or absence of 10 nM bortezomib (treatment for 20 hours) by measuring the rate of incorporation of 3H-phenylalanine for 1 hour. **p<0.01***p<0.001 […]

[2] = tested on: MM.1S tumors; assay: MM.1S luciferase multiple myeloma model in SCID mice; format: in vivo, mouse; settings: elesclomol 28mg/kg with bortezomib 0.25mg/kg
Protocol: FIGS. 54A-54D: Inhibiting the glycolysis-OXPHOS shift with elesclomol is beneficial to proteasome inhibitor treatment in a mouse model of multiple myeloma. (FIG. 54A) provides a schematic of the experimental outline. Mice were injected with MM .'S luciferase expressing cells. Upon tumor formation as judged by BLI signal intensity, treatment with elesclomol (28mg/kg), bortezomib (0.25mg/kg) or the combination (Combo) was initiated (day 0). At day 15, elesclomol was added to the treatment of one of the aroups that had received only bortezomib from day 0 to day 15 (combo-delayed group). […] N=5 per aroup. *** p<0.001.
FIGS. 60A-60B: Inhibiting the glycolysis-OXPHOS shift, with elesclomol is beneficial to proteasome inhibitor treatment in a mouse model of multiple myeloma.

[3] = target: T1, FDX1 (Homo sapiens, UniProt P10109); assay: Electron transfer from reduced FDX1 to the cysteine desulfurase complex; format: biochemical; settings: upon addition of cysteine
T1 construct: made in house
T1 sequence (P10109 62-184): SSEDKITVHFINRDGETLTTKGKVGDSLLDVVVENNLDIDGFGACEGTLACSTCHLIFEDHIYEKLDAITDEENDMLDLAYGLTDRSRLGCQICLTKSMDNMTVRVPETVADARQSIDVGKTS

[4] = target: T1, FDX1; assay: Electron transfer assay, reduced FDX1 to SDA complex; format: biochemical; settings: upon addition of cysteine
Text: Fe—S clusters are generated from sulfur extracted from cysteine by the iron sulfur-cluster (ISC) core complex (NFS1-ISD11-Acp-ISCU)2 and iron. A reductant (FDX1 or FDX2) is required for Fc-S cluster biosynthesis (Lill and Muhlenhoff, 2006; Py and Barras, 2010) (FIG. 53A). To investigate the effect of elesclomol on mitochondrial Fe—S cluster biosynthesis, we utilized in vitro Fe—S cluster assembly assays. […] As further confirmation, we examined the effect of elesclomol on electron transfer from reduced FDX1 to the ISC core complex upon the addition of cysteine.
Electron transfer assay—Electron transfer from re-FDX1 SDA complex was monitored as follows. 25 μM reduced FDX1 was mixed with 25 μM SDA, and 125 μM L-cysteine was added to initiate the reaction. To test the effect of the drug, samples contained 25-500 μM elesclomol (1-20× relative to FDX1). Samples were then transferred to 1 cm path-length quartz cuvettes, sealed with rubber septa, and UV/vis spectra were collected at 25° C. The growth of absorbance at 456 nm was used to monitor the oxidation of reduced FDX1 as a result of electron transfer to SDA.

[5] = tested on: MCF7 and HEK293 cells; assay: Cell viability with glucose or galactose as the carbon source; format: cell-based, human; settings: 10 mM glucose or 10 mM galactose
Protocol: Cells were treated with increasing concentrations of elesclomol in the presence of either Glucose or Galactose as the carbon source (FIG. 40A). The presence of Galactose will induce a mitochondrial dependent metabolism (FIGS. 40B-40C, Gohil et al., Nature Biotechnology 28, 249-255 (2010)).
The sensitivity of cells to different chemical isoforms of elesclomol was also assessed. […] Removing even one substantially impairs the ability of the molecule to induce toxicity (FIG. 41B).
Cell culture methods—147D, Lo19S T47D, K562 and 293T-HS cells were cultured in RPMI-1640 medium supplemented with 10% fetal bovine serum; HEK293, HEK293T and MCF-7 cells were cultured in Dulbecco's modified Eagle's medium supplemented with 10% fetal bovine serum. For the glucose, galactose experiments media lacking glucose was supplemented with dialyzed serum and either 10 mM Glucose or 10 mM galactose.
Cell viability—where indicated relative cell number following different drug treatment was conducted by plating cells at 1000 cells/well in 384 well plates. Indicated concentrations of compounds were added 24 hour after plating at least in triplicate for each condition. Viability was measured 72 hours after drug addition using cell titer-glo (Promega) according to manufactures protocol. […]

Compound: CC(C)C[C@H](NC(=O)[C@H](Cc1ccccc1)NC(=O)c1cnccn1)B(O)O [bortezomib]
- rate of protein degradation [1]: sharply decreased
- rate of protein synthesis [1]: sharply decreased

Compound: CN(NC(=O)CC(=O)NN(C)C(=S)c1ccccc1)C(=S)c1ccccc1 [elesclomol]
- effect on proteasome inhibitor treatment in a mouse model of multiple myeloma [2]: beneficial
- electron transfer from reduced FDX1 to the cysteine desulfurase complex [3]: inhibits electron transfer
- inhibition of electron transfer from reduced FDX1 to the NFS1 component of the ISC core complex [4]: progressive inhibition of electron transfer
- sensitivity of cells in galactose (mitochondrial metabolism, Hi-OXPHOS) versus glucose (glycolytic) [5]: much more sensitive; also recorded: toxicity is enhanced

Reference: patent US20180353445A1, “METHODS AND COMPOSITIONS RELATING TO PROTEASOME INHIBITOR RESISTANCE” (Whitehead Institute for Biomedical Research, priority 2017, published 2018)
